The values below come from patent EP3284739A1, “SUBSTITUTED (HET) ARYL COMPOUNDS AS PESTICIDES” (Bayer CropScience Aktiengesellschaft, priority 2017, dated 2018).

For data set [1], the system named is Ctenocephalides felis. The experiment in a line: Ctenocephalides felis oral test (feeding on treated citrated cattle blood). As to conditions: 48 h, Aufwandmenge 100ppm, after 2 days, read-out: Wirkung (Abtötung). The format is in vivo. How it is done: Zwecks Herstellung einer zweckmäßigen Wirkstoffzubereitung vermischt man 10 mg Wirkstoff mit 0,5 ml Dimethylsulfoxid. Durch Verdünnen mit citriertem Rinderblut erhält man die gewünschte Konzentration.
Ca. 20 nüchterne adulte Katzenflöhe (Ctenocephalides felis) werden in eine Kammer eingesetzt, die oben und unten mit Gaze verschlossen ist. Auf die Kammer wird ein Metallzylinder gestellt, dessen Unterseite mit Parafilm verschlossen ist. Der Zylinder enthält die Blut-Wirkstoffzubereitung, die von den Flöhen durch die Parafilmmembran aufgenommen werden kann.
Nach 2 Tagen wird die Abtötung in % bestimmt. Dabei bedeutet 100 %, dass alle Flöhe abgetötet wurden; 0 % bedeutet, dass keiner der Flöhe abgetötet wurde.

In the next data set the test system is Lucilia cuprina. The data set can be described thus: Lucilia cuprina test (L1 larvae on treated minced horse meat). Particulars: 48 h, Aufwandmenge 100ppm, after 2 days, read-out: Wirkung (Abtötung). The format is in vivo. As to the method: (§1) Zur Herstellung einer zweckmäßigen Wirkstoffzubereitung vermischt man 10 mg Wirkstoff mit 0,5 ml Dimethylsulfoxid und verdünnt das Konzentrat mit Wasser auf die gewünschte Konzentration.
Ca. 20 L1-Larven der Australischen Schafgoldfliege (Lucilia cuprina) werden in ein Testgefäß überführt, welches gehacktes Pferdefleisch und die Wirkstoffzubereitung der gewünschten Konzentration enthält.
Nach 2 Tagen wird die Abtötung in % bestimmt. Dabei bedeutet 100 %, dass alle Larven abgetötet wurden; 0 % bedeutet, dass keine Larven abgetötet wurden.

In the next data set the test system is Phaedon cochleariae. The experiment in a line: Phaedon cochleariae spray test (Chinese cabbage leaf discs, larvae). The data set is classed as in vivo. Particulars: foliar, 168 h, read-out: Wirkung. An excerpt: (§2) Zur Herstellung einer zweckmäßigen Wirkstoffzubereitung löst man 1 Gewichtsteil Wirkstoff mit den angegebenen Gewichtsteilen Lösungsmittel und füllt mit Wasser, welches eine Emulgatorkonzentration von 1000 ppm enthält, bis zum Erreichen der gewünschten Konzentration auf. Zur Herstellung weiterer Testkonzentrationen wird mit emulgatorhaltigem Wasser verdünnt.
Chinakohlblattscheiben (Brassica pekinensis) werden mit einer Wirkstoffzubereitung der gewünschten Konzentration gespritzt und nach dem Abtrocknen mit Larven des Meerrettichblattkäfers (Phaedon cochleariae) besetzt.
Nach 7 Tagen wird die Wirkung in % bestimmt. Dabei bedeutet 100 %, dass alle Käferlarven abgetötet wurden; 0 % bedeutet, dass keine Käferlarven abgetötet wurden.

The test system of the next data set is Spodoptera frugiperda. The experiment in a line: Spodoptera frugiperda spray test (maize leaf discs, caterpillars). As to conditions: foliar, 168 h, Aufwandmenge 500g/ha, after 7 days, read-out: Wirkung. The format is in vivo.
From the text: as §2
Maisblattscheiben (Zea mays) werden mit einer Wirkstoffzubereitung der gewünschten Konzentration gespritzt und nach dem Abtrocknen mit Raupen des Heerwurms (Spodoptera frugiperda) besetzt.
Nach 7 Tagen wird die Wirkung in % bestimmt. Dabei bedeutet 100 %, dass alle Raupen abgetötet wurden; 0 % bedeutet, dass keine Raupe abgetötet wurde.

The test system of the next data set is Tetranychus urticae. The data set can be described thus: Tetranychus urticae spray test, OP-resistant (bean leaf discs). The data set is classed as in vivo. Particulars: foliar, 144 h, read-out: Wirkung.
From the text: as §2
Bohnenblattscheiben (Phaseolus vulgaris), die von allen Stadien der Gemeinen Spinnmilbe (Tetranychus urticae) befallen sind, werden mit einer Wirkstoffzubereitung der gewünschten Konzentration gespritzt.
Nach 6 Tagen wird die Wirkung in % bestimmt. Dabei bedeutet 100 %, dass alle Spinnmilben abgetötet wurden; 0 % bedeutet, dass keine Spinnmilben abgetötet wurden.

A short description of data set [2]: logP by reversed-phase HPLC (LC-MS), neutral range. The format is physicochemical. Particulars: c18 hplc, ammonium bicarbonate/acetonitrile; pH 7.8, 0,001 molar aqueous Ammoniumhydrogencarbonat / Acetonitril, C 18, 55°C. As to the method:
(§3) Die Messung der logP Werte erfolgt gemäß EEC Directive 79/831 Annex V.A8 durch HPLC (High Performance Liquid Chromatography) an einer Phasenumkehrsäule (C 18). Temperatur: 55°C. Die Bestimmung mit der LC-MS im sauren Bereich erfolgt bei pH 2,7 mit 0,1 % wässriger Ameisensäure und Acetonitril (enthält 0,1% Ameisensäure) als Eluenten; linearer Gradient von 10% Acetonitril bis 95% Acetonitril. In der Tabelle logP (HCOOH) genannt.
Die Bestimmung mit der LC-MS im neutralen Bereich erfolgt bei pH 7.8 mit 0,001 molarer wässriger Ammoniumhydrogencarbonat-Lösung und Acetonitril als Eluenten; linearer Gradient von 10 % Acetonitril bis 95 % Acetonitril. In der Tabelle logP (neutral) genannt.
(§4) Die Eichung erfolgt mit unverzweigten Alkan-2-onen (mit 3 bis 16 Kohlenstoffatomen), deren logP-Werte bekannt sind (Bestimmung der logP-Werte anhand der Retentionszeiten durch lineare Interpolation zwischen zwei aufeinander folgenden Alkanonen).

In data set [3] the test system is Ctenocephalides felis. The data set can be described thus: Ctenocephalides felis in-vitro contact test with adult cat fleas (coated glass tubes). The format is in vivo. As to conditions: 48 h, read-out: Wirkung. As to the method: Für die Beschichtung der Teströhrchen werden zunächst 9 mg Wirkstoff in 1 ml Aceton p.a. gelöst und anschließend mit Aceton p.a. auf die gewünschte Konzentration verdünnt. 250 µl der Lösung werden durch Drehen und Kippen auf einem Rotationsschüttler (2 h Schaukelrotation bei 30 rpm) homogen auf den Innenwänden und dem Boden eines 25ml Glasröhrchens verteilt. Bei 900 ppm Wirkstofflösung und 44,7 cm^2 Innenoberfläche wird bei homogener Verteilung eine Flächendosis von 5 µg/cm^2 erreicht.
Nach Abdampfen des Lösungsmittels werden die Gläschen mit 5-10 adulten Katzenflöhen (Ctenocephalides felis) besetzt, mit einem gelochten Kunststoffdeckel verschlossen und liegend bei Raumtemperatur und Umgebungsfeuchte inkubiert. Nach 48 h wird die Wirksamkeit bestimmt. Hierzu werden die Gläschen aufrecht gestellt und die Flöhe auf den Boden des Gläschens geklopft. Flöhe, die unbeweglich auf dem Boden verbleiben oder sich unkoordiniert bewegen, gelten als tot bzw. angeschlagen.
Eine Substanz zeigt gute Wirkung gegen Ctenocephalides felis, wenn in diesem Test bei einer Aufwandmenge von 5 µg/cm^2 mindestens 80% Wirkung erzielt wurde. Dabei bedeutet 100% Wirkung, dass alle Flöhe angeschlagen oder tot waren. 0% Wirkung bedeutet, dass keine Flöhe geschädigt wurden.

For a further data set, the system named is Musca domestica. The data set can be described thus: Musca domestica test (adult flies, treated sugar sponge). The data set is classed as in vivo. Particulars: 48 h, read-out: Wirkung (Abtötung). How it is done:
as §1
Gefäße, die einen Schwamm enthalten, der mit Zuckerlösung und der Wirkstoffzubereitung der gewünschten Konzentration behandelt wurde, werden mit 10 adulten Stubenfliegen (Musca domestica) besetzt.
Nach 2 Tagen wird die Abtötung in % bestimmt. Dabei bedeutet 100 %, dass alle Fliegen abgetötet wurden; 0 % bedeutet, dass keine der Fliegen abgetötet wurde.

A further data set deals with Myzus persicae. The experiment in a line: Myzus persicae spray test (Chinese cabbage leaf discs). The data set is classed as in vivo. As to conditions: foliar, 144 h, Aufwandmenge 500g/ha, after 6 days, read-out: Wirkung.
From the text: as §2
Chinakohlblattscheiben (Brassica pekinensis), die von allen Stadien der Grünen Pfirsichblattlaus (Myzus persicae) befallen sind, werden mit einer Wirkstoffzubereitung der gewünschten Konzentration gespritzt.
Nach 6 Tagen wird die Wirkung in % bestimmt. Dabei bedeutet 100 %, dass alle Blattläuse abgetötet wurden; 0 % bedeutet, dass keine Blattläuse abgetötet wurden.

For a further data set, the system named is Meloidogyne incognita. The data set can be described thus: Meloidogyne incognita test (gall formation on lettuce roots). The format is in vivo. As to conditions: 336 h, Aufwandmenge 20ppm, after 14 days, read-out: Wirkung (nematizide Wirkung anhand der Gallenbildung). An excerpt:
Zur Herstellung einer zweckmäßigen Wirkstoffzubereitung vermischt man 1 Gewichtsteil Wirkstoff mit der angegebenen Menge Lösungsmittel und verdünnt das Konzentrat mit Wasser auf die gewünschte Konzentration.
Gefäße werden mit Sand, Wirkstofflösung, einer Ei-Larven-Suspension des südlichen Wurzelgallenälchens (Meloidogyne incognita) und Salatsamen gefüllt. Die Salatsamen keimen und die Pflänzchen entwickeln sich. An den Wurzeln entwickeln sich die Gallen.
Nach 14 Tagen wird die nematizide Wirkung anhand der Gallenbildung in % bestimmt. Dabei bedeutet 100 %, dass keine Gallen gefunden wurden; 0 % bedeutet, dass die Zahl der Gallen an den behandelten Pflanzen der unbehandelten Kontrolle entspricht.

The nature of data set [4]: logP by reversed-phase HPLC (LC-MS), acidic range. Particulars: c18 hplc, formic acid/acetonitrile; pH 2,7, 0,1 % aqueous Ameisensäure / Acetonitril, C 18, 55°C; read-out: logP (HCOOH). The data set is classed as physicochemical. As to the method: as §3, §4

Where two headings read alike, the source gives them in different places.

As to `O=C(Nc1cc(-c2ccc(C(F)(F)C(F)(F)F)cc2)cc(NC(=O)C2CC2)n1)C1CC1` [I-036], the mortality at 100 µg/mL was 100% in the data set with Ctenocephalides felis [1] and 95% in the data set on Lucilia cuprina. The mortality at 500 g/ha stood at 83% in the data set on Phaedon cochleariae, 100% in the data set on Spodoptera frugiperda and 90% with Tetranychus urticae.
Regarding `O=C(Nc1cc(-c2ccc(OC(F)(F)F)cc2)cc(NC(=O)C2(F)CC2)n1)C1CC1` [I-012, N-{6-[(Cyclopropylcarbonyl)amino]-4-[4-(trifluormethoxy)phenyl]pyridin-2-yl}-1-fluorcyclopropancarboxamid], the mortality at 100 µg/mL in the data set with Ctenocephalides felis [1] came to 95%. Moreover, the mortality at 500 g/ha in the data set with Phaedon cochleariae and in the data set on Spodoptera frugiperda was 100% throughout. In addition, the chromatographic logP in data set [2] came out at 3.88.
As to `CC(C)(C)C(=O)Nc1cc(-c2ccc(OC(F)(F)F)cc2)cc(NC(=O)C2CC2)n1` [I-017], the mortality at 500 g/ha in the data set with Ctenocephalides felis [3], with Phaedon cochleariae and with Spodoptera frugiperda was 100% in each case. Also, the mortality at 100 µg/mL in the data set on Ctenocephalides felis [1] is 100%.
Regarding `O=C(Nc1cc(-c2ccc(OC(F)(F)F)cc2)cc(NC(=O)C2(C3CC3)CC2)n1)C1CC1` [I-014], the mortality at 100 µg/mL with Ctenocephalides felis [1] stood at 100%; in the data set with Lucilia cuprina, 100%; with Musca domestica it was 80%. The mortality at 500 g/ha in the data set with Phaedon cochleariae and in the data set on Spodoptera frugiperda was 100% throughout.
As for `O=C(Nc1cc(-c2ccc(OC(F)(F)F)cc2)cc(NC(=O)C2(c3ccccc3)CC2)n1)C1CC1` [I-008], the mortality at 500 g/ha in the data set with Myzus persicae came to 90%.
As to `O=C(Nc1cc(-c2ccc(OC(F)(F)F)cc2)cc(NC(=O)C2CC2)n1)C1CC1` [I-001, N,N'-{4-[4-(Trifluormethoxy)phenyl]pyridin-2,6-diyl}dicyclopropancarboxamid], the mortality at 100 µg/mL came to 100% in the data set on Ctenocephalides felis [1] and 95% in the data set with Lucilia cuprina. In addition, the inhibition at 20 µg/mL in the data set with Meloidogyne incognita was found to be 90%. Further, the mortality at 500 g/ha with Phaedon cochleariae and in the data set on Spodoptera frugiperda was 100% throughout.
With `CC1=CC1C(=O)Nc1cc(-c2ccc(OC(F)(F)F)cc2)cc(NC(=O)C2CC2)n1` (stereo not drawn) [I-034], the mortality at 500 g/ha in the data set with Tetranychus urticae (Aufwandmenge 500g/ha, after 6 days, OP-resistent) is 90%.
Take `CC(C)C(=O)Nc1cc(NC(=O)C2CC2)cc(-c2ccc(C(F)(F)C(F)(F)F)c(F)c2)c1` [I-060, N-[3'-Fluor-5-(isobutyrylamino)-4'-(pentafluorethyl)biphenyl-3-yl]cyclopropancarboxamid]: the mortality at 500 g/ha in the data set on Phaedon cochleariae and in the data set on Spodoptera frugiperda was 100% throughout. In data set [4], the chromatographic logP worked out at 3.7.
For the compound `CC(C)(F)C(=O)Nc1cc(-c2ccc(OC(F)(F)F)cc2)cc(NC(=O)C2CC2)n1` [I-015], in the data set with Ctenocephalides felis [1], the mortality at 100 µg/mL is 100%. For the same compound, the mortality at 500 g/ha worked out at 100% in the data set on Phaedon cochleariae, 100% in the data set on Spodoptera frugiperda and 90% in the data set with Tetranychus urticae.
`O=C(Nc1cc(-c2ccc(OC(F)(F)F)cc2)cc(NC(=O)C2(C(F)(F)F)CC2)n1)C1CC1` [I-006]: the mortality at 100 µg/mL amounted to 100% in the data set with Ctenocephalides felis [1] and 90% in the data set with Musca domestica. In addition, the results for the mortality at 500 g/ha in the data set with Phaedon cochleariae and in the data set with Spodoptera frugiperda were 83% and 100%, respectively.
